Experiments:
Assay in all cases: Glasshouse herbicidal test, pre- and post-emergence (Table B1)
Format in all cases: in vivo
[1] = test system: Ipomoea hederacea (IPOHE); settings: 130 g/h, evaluated after 13 days; for percentage damage caused to the plant, POST Application IPOHE: post-emergence; for percentage damage caused to the plant, PRE Application IPOHE: pre-emergence
Experimental: (§1) Seeds of a variety of test species are sown in standard soil in pots (Lolium perenne (LOLPE), Amaranthus retoflexus (AMARE), Amaranthus palmeri (AMAPA), Ablution theophrasti (ABUTH), Setaria faberi (SETFA), Echinochloa crus-galli (ECHCG), Ipomoea hederacea (IPOHE)). After cultivation for one day (pre-emergence) or after 8 days cultivation (post-emergence) under controlled conditions in a glasshouse (at 24/16° C., day/night; 14 hours light; 65% humidity), the plants are sprayed with an aqueous spray solution derived from the formulation of the technical active ingredient in acetone/water (50:50) solution containing 0.5% Tween 20 (polyoxyethelyene sorbitan monolaurate, CAS RN 9005-64-5). Compounds are applied at 130 g/h unless otherwise indicated. The test plants are then grown in a glasshouse under controlled conditions in a glasshouse (at 24/16° C., day/night; 14 hours light; 65% humidity) and watered twice daily. After 13 days for pre and post-emergence, the test is evaluated for the percentage damage caused to the plant. The biological activities are shown in the following table on a five-point scale (5=80-100%; 4=60-79%; 3=40-59%; 2=20-39%; 1=0-19%).

[2] = test system: Ablution theophrasti (ABUTH); settings: 130 g/h, evaluated after 13 days; for percentage damage caused to the plant, PRE Application ABUTH: pre-emergence; for percentage damage caused to the plant, POST Application ABUTH: post-emergence
Experimental: as §1

[3] = test system: Setaria faberi (SETFA); settings: 130 g/h, evaluated after 13 days; for percentage damage caused to the plant, POST Application SETFA: post-emergence; for percentage damage caused to the plant, PRE Application SETFA: pre-emergence
Experimental: as §1

[4] = test system: Echinochloa crus-galli (ECHCG); settings: 130 g/h, evaluated after 13 days; for percentage damage caused to the plant, PRE Application ECHCG: pre-emergence; for percentage damage caused to the plant, POST Application ECHCG: post-emergence
Experimental: as §1

[5] = test system: Amaranthus retoflexus (AMARE); settings: 130 g/h, evaluated after 13 days; for percentage damage caused to the plant, POST Application AMARE: post-emergence; for percentage damage caused to the plant, PRE Application AMARE: pre-emergence
Experimental: as §1

[6] = test system: Amaranthus palmeri (AMAPA); settings: 130 g/h, evaluated after 13 days; for percentage damage caused to the plant, POST Application AMAPA: post-emergence; for percentage damage caused to the plant, PRE Application AMAPA: pre-emergence
Experimental: as §1

| SMILES | percentage damage caused to the plant, POST Application IPOHE [1] | percentage damage caused to the plant, PRE Application IPOHE [1] | percentage damage caused to the plant, PRE Application ABUTH [2] | percentage damage caused to the plant, POST Application SETFA [3] | percentage damage caused to the plant, PRE Application SETFA [3] | percentage damage caused to the plant, PRE Application ECHCG [4] | percentage damage caused to the plant, POST Application AMARE [5] | percentage damage caused to the plant, PRE Application AMARE [5] | percentage damage caused to the plant, POST Application ABUTH [2] | percentage damage caused to the plant, POST Application ECHCG [4] | percentage damage caused to the plant, POST Application AMAPA [6] | percentage damage caused to the plant, PRE Application AMAPA [6] |
| --- | --- | --- | --- | --- | --- | --- | --- | --- | --- | --- | --- | --- |
| Cn1nnnc1NC(=O)c1ccc(OC(F)F)c(NS(C)(=O)=O)c1Cl [Compound 1.065] | 4 (4=60-79%) | 2 (2=20-39%) | 5 (5=80-100%) | 5 (5=80-100%) | 3 (3=40-59%) | 4 (4=60-79%) | 5 (5=80-100%) | 5 (5=80-100%) | – | – | – | – |
| Cn1nnnc1NC(=O)c1ccc(OC(F)F)c(NS(=O)(=O)C2CC2)c1Cl [Compound 1.067] | 5 (5=80-100%) | 4 (4=60-79%) | 5 (5=80-100%) | 5 (5=80-100%) | 3 (3=40-59%) | 4 (4=60-79%) | 4 (4=60-79%) | 5 (5=80-100%) | 5 (5=80-100%) | 5 (5=80-100%) | – | – |
| Cn1nnnc1NC(=O)c1ccc(OC(F)(F)F)c(NS(C)(=O)=O)c1Cl [Compound 1.004] | 4 (4=60-79%) | 3 (3=40-59%) | 5 (5=80-100%) | 5 (5=80-100%) | 5 (5=80-100%) | 5 (5=80-100%) | 5 (5=80-100%) | 5 (5=80-100%) | 5 (5=80-100%) | 5 (5=80-100%) | – | – |
| CCn1nnnc1NC(=O)c1ccc(OC(F)(F)F)c(NS(=O)(=O)CC)c1Cl [Compound 1.002, 2-chloro-3-(ethylsulfonylamino)-N-(1-ethyltetrazol-5-yl)-4-(trifluoromethoxy)benzamide] | 4 (4=60-79%) | 5 (5=80-100%) | 5 (5=80-100%) | 5 (5=80-100%) | 5 (5=80-100%) | 5 (5=80-100%) | 5 (5=80-100%) | 5 (5=80-100%) | 5 (5=80-100%) | 5 (5=80-100%) | – | – |
| CCS(=O)(=O)Nc1c(OC(F)(F)F)ccc(C(=O)Nc2nnnn2C)c1Cl [Compound 1.003, 2-chloro-3-(ethylsulfonylamino)-N-(1-methyltetrazol-5-yl)-4-(trifluoromethoxy)benzamide] | 5 (5=80-100%) | 4 (4=60-79%) | 5 (5=80-100%) | 5 (5=80-100%) | 4 (4=60-79%) | 5 (5=80-100%) | 4 (4=60-79%) | 5 (5=80-100%) | 5 (5=80-100%) | 5 (5=80-100%) | – | – |
| CCn1nnnc1NC(=O)c1ccc(OC(F)(F)F)c(NS(C)(=O)=O)c1Cl [Compound 1.001] | 5 (5=80-100%) | 4 (4=60-79%) | 5 (5=80-100%) | 5 (5=80-100%) | 3 (3=40-59%) | 5 (5=80-100%) | 4 (4=60-79%) | 5 (5=80-100%) | 5 (5=80-100%) | 5 (5=80-100%) | – | – |
| CCn1nnnc1NC(=O)c1ccc(OC(F)F)c(NS(C)(=O)=O)c1Cl [Compound 1.059] | 5 (5=80-100%) | 2 (2=20-39%) | 5 (5=80-100%) | 5 (5=80-100%) | 4 (4=60-79%) | 5 (5=80-100%) | 5 (5=80-100%) | 5 (5=80-100%) | 5 (5=80-100%) | 5 (5=80-100%) | – | – |
| Cn1nnnc1NC(=O)c1ccc(OC(F)(F)F)c(NS(=O)(=O)C2CC2)c1Cl [Compound 1.073] | 5 (5=80-100%) | 5 (5=80-100%) | – | 5 (5=80-100%) | 5 (5=80-100%) | 5 (5=80-100%) | 5 (5=80-100%) | 5 (5=80-100%) | – | 5 (5=80-100%) | 5 (5=80-100%) | 5 (5=80-100%) |
| CCS(=O)(=O)N(C)c1c(OC(F)(F)F)ccc(C(=O)Nc2nnnn2C)c1Cl [Compound 1.080] | 5 (5=80-100%) | 5 (5=80-100%) | – | 5 (5=80-100%) | 5 (5=80-100%) | 5 (5=80-100%) | 5 (5=80-100%) | 5 (5=80-100%) | – | 5 (5=80-100%) | 5 (5=80-100%) | 5 (5=80-100%) |
| CN(c1c(OC(F)F)ccc(C(=O)Nc2nnnn2C)c1Cl)S(C)(=O)=O [Compound 1.071] | 4 (4=60-79%) | 3 (3=40-59%) | – | 5 (5=80-100%) | 5 (5=80-100%) | 5 (5=80-100%) | 5 (5=80-100%) | 5 (5=80-100%) | – | 5 (5=80-100%) | 5 (5=80-100%) | 5 (5=80-100%) |
